{"source": "patent US20200138825A1", "about": "“METHOD OF TREATING MALIGNANT RHABDOID TUMOR OF THE OVARY (MRTO)/SMALL CELL CANCER OF THE OVARY OF THE HYPERCALCEMIC TYPE(SCCOHT) WITH AN EZH2 INHIBITOR” (Epizyme, Inc., priority 2015, published 2020)", "format_in_all_cases": "cell-based", "key": {"NCl-H23": {"system": "NCl-H23", "assay": "EZH2 inhibition sensitivity, NCl-H23", "conditions": "SMARCA2 mRNA/protein loss, SMARCA4 Mutations, KRAS Mutations, read-out: Compound D IC50", "text": "(§1) Sensitivity to EZH2 inhibition was examined in various cancer cell lines with similar mutations or loss of SWI/SNF components. Table 7 summarizes the EZH2 activity in additional SWI/SNF altered cancers, including lung adenocarcinoma."}, "NClH2122": {"system": "NClH2122", "assay": "EZH2 inhibition sensitivity, NClH2122", "conditions": "KRAS Mutations, read-out: Compound D IC50", "text": "as §1"}, "NClH1793": {"system": "NClH1793", "assay": "EZH2 inhibition sensitivity, NClH1793", "conditions": "SMARCA4 Mutations, read-out: Compound D IC50", "text": "as §1"}, "A427": {"system": "A427", "assay": "EZH2 inhibition sensitivity, A427", "conditions": "Homo sapiens, A-427, SMARCA2 mRNA/protein loss, SMARCA4 Mutations, KRAS Mutations, read-out: Compound D IC50", "text": "as §1"}, "NClH1563": {"system": "NClH1563", "assay": "EZH2 inhibition sensitivity, NClH1563", "conditions": "no mutations or info not available in SMARCA2, SMARCA4, KRAS, read-out: Compound D IC50", "text": "as §1"}, "NClH1373": {"system": "NClH1373", "assay": "EZH2 inhibition sensitivity, NClH1373", "conditions": "KRAS Mutations, read-out: Compound D IC50", "text": "as §1"}, "HCC827": {"system": "HCC827", "assay": "EZH2 inhibition sensitivity, HCC827 (Proquinase 3D)", "conditions": "Homo sapiens, Proquinase 3D IC50, no mutations or info not available in SMARCA2, SMARCA4, KRAS, read-out: Compound D IC50", "text": "as §1"}, "NCl-H441": {"system": "NCl-H441", "assay": "EZH2 inhibition sensitivity, NCl-H441 (Proquinase 3D)", "conditions": "Proquinase 3D IC50, KRAS Mutations, read-out: Compound D IC50", "text": "as §1"}, "H3K27me3 in Bin-67 cells": {"system": "H3K27me3 in Bin-67 cells", "assay": "Western Blot of H3K27me3 levels in Bin-67 cells", "conditions": "day 14, all concentrations"}, "[1]": {"system": "ARID1A-mutated ovarian cell lines", "assay": "3D growth assay (Scivax Nanoculture), ARID1A-mutated ovarian cell lines", "conditions": "after 14 days", "description": "3D assays were performed using the Scivax Nanoculture technology whereby the micro-patterned scaffold mimics the ECM.\n(§2) A panel of ovarian cancer cell lines of different histologies was subjected to proliferation assays in 2-D tissue culture for 14 days in the presence of increasing concentrations of an EZH2 inhibitor. Selected cell lines were also tested in 3-D cultures. […] In contrast, mutations in ARID1A, another SWI/SNF component, were not observed to broadly confer sensitivity to EZH2 inhibition in ovarian cancer cell lines in either 2-D or 3-D in vitro assays."}, "NCl-H1299": {"system": "NCl-H1299", "assay": "EZH2 inhibition sensitivity, NCl-H1299", "conditions": "SMARCA4 Mutations, read-out: Compound D IC50", "text": "as §1"}, "NClH838": {"system": "NClH838", "assay": "EZH2 inhibition sensitivity, NClH838", "conditions": "SMARCA4 Mutations, read-out: Compound D IC50", "text": "as §1"}, "NClH2110": {"system": "NClH2110", "assay": "EZH2 inhibition sensitivity, NClH2110", "conditions": "no mutations or info not available in SMARCA2, SMARCA4, KRAS, read-out: Compound D IC50", "text": "as §1"}, "Calu-6": {"system": "Calu-6", "assay": "EZH2 inhibition sensitivity, Calu-6", "conditions": "Homo sapiens, KRAS Mutations, read-out: Compound D IC50", "text": "as §1"}, "SCCOHT cell line Bin-67": {"system": "SCCOHT cell line Bin-67", "assay": "14 day proliferation study in Bin-67", "conditions": "336 h; Bin-67, 14 day proliferation, 0.01-10 μM", "description": "FIG. 13C is a graph displaying the results of a 14 day proliferation study with Compound D in the SMARCA4- and SMARCA2-negative small cell carcinoma of the ovary, hypercalcemic type (SCCOHT) cell line Bin-67. Growth curves are shown for 8 different treatment conditions ranging from 0.01-10 μM.\nas §2"}, "[2]": {"system": "SMARCA4-negative ovarian cell lines", "assay": "Long term 2D proliferation assay, SMARCA4-negative ovarian cell lines", "conditions": "day 14, SMARCA4-negative cell lines", "description": "(§3) FIG. 13B is a pair of graphs depicting the results of a long term 2D proliferation assay for Compound D in SMARCA4 and ARID1A ovarian cell lines. The day 14 IC50 values are shown.\nas §2"}, "NClH1993": {"system": "NClH1993", "assay": "EZH2 inhibition sensitivity, NClH1993", "conditions": "no mutations or info not available in SMARCA2, SMARCA4, KRAS, read-out: Compound D IC50", "text": "as §1"}, "SCCOHT cell lines": {"system": "SCCOHT cell lines", "assay": "14-day proliferation assays, SCCOHT cell lines", "conditions": "336 h, three SCCOHT cell lines", "description": "as §2"}, "H460": {"system": "H460", "assay": "EZH2 inhibition sensitivity, H460 (Proquinase 3D)", "conditions": "Homo sapiens, NCI-H460, Proquinase 3D IC50, KRAS Mutations, read-out: Compound D IC50", "text": "as §1"}, "NClH1734": {"system": "NClH1734", "assay": "EZH2 inhibition sensitivity, NClH1734", "conditions": "KRAS Mutations, read-out: Compound D IC50", "text": "as §1"}, "[3]": {"system": "ARID1A mutated ovarian cell lines", "assay": "Long term 2D proliferation assay, ARID1A mutated ovarian cell lines", "conditions": "day 14, ARID1A mutated ovarian cell lines", "description": "as §3, §2"}, "A549": {"system": "A549", "assay": "EZH2 inhibition sensitivity, A549 (Proquinase 3D)", "conditions": "Homo sapiens, Proquinase 3D IC50, SMARCA4 Mutations, KRAS Mutations, read-out: Compound D IC50", "text": "as §1"}, "NCl-H522": {"system": "NCl-H522", "assay": "EZH2 inhibition sensitivity, NCl-H522", "conditions": "SMARCA2 mRNA/protein loss, SMARCA4 Mutations, KRAS No mutations or info not available, read-out: Compound D IC50", "text": "as §1"}, "Calu-3": {"system": "Calu-3", "assay": "EZH2 inhibition sensitivity, Calu-3", "conditions": "Homo sapiens, no mutations or info not available in SMARCA2, SMARCA4, KRAS, read-out: Compound D IC50", "text": "as §1"}}}
{"smiles": "CCN(c1cc(-c2ccc(CN3CCOCC3)cc2)cc(C(=O)NCc2c(C)cc(C)[nH]c2=O)c1C)[C@H]1CC[C@H](N(C)C)CC1", "note": "[Compound D]", "values": [{"measurement": "IC50", "setting": "NCl-H23", "value": 10, "unit": "µM"}, {"measurement": "IC50", "setting": "NClH2122", "value": 10, "unit": "µM"}, {"measurement": "IC50", "setting": "NClH1793", "value": 10, "unit": "µM"}, {"measurement": "IC50", "setting": "A427", "value": 2.3, "unit": "µM"}, {"measurement": "IC50", "setting": "NClH1563", "value": 10, "unit": "µM"}, {"measurement": "IC50", "setting": "NClH1373", "value": 10, "unit": "µM"}, {"measurement": "IC50", "setting": "HCC827", "value": 10, "unit": "µM"}, {"measurement": "IC50", "setting": "NCl-H441", "value": 10, "unit": "µM"}, {"measurement": "H3K27me3 levels", "setting": "H3K27me3 in Bin-67 cells", "value": "completely reduced"}, {"measurement": "3D growth effects", "setting": "[1]", "value": "No effects were observed"}, {"measurement": "IC50", "setting": "NCl-H1299", "value": 10, "unit": "µM"}, {"measurement": "IC50", "setting": "NClH838", "value": 10, "unit": "µM"}, {"measurement": "IC50", "setting": "NClH2110", "value": 10, "unit": "µM"}, {"measurement": "IC50", "setting": "Calu-6", "value": 0.001, "unit": "µM"}, {"measurement": "IC50", "setting": "SCCOHT cell line Bin-67", "value": 0.01, "unit": "µM"}, {"measurement": "anti-proliferative effects", "setting": "[2]", "value": "anti-proliferative effects"}, {"measurement": "IC50", "setting": "NClH1993", "value": 10, "unit": "µM"}, {"measurement": "IC50", "setting": "SCCOHT cell lines", "value": "0.005 to 0.017", "unit": "µM"}, {"measurement": "IC50", "setting": "H460", "value": 10, "unit": "µM"}, {"measurement": "IC50", "setting": "NClH1734", "value": 10, "unit": "µM"}, {"measurement": "anti-proliferative effects", "setting": "[3]", "value": "do not"}, {"measurement": "IC50", "setting": "A549", "value": 10, "unit": "µM"}, {"measurement": "IC50", "setting": "NCl-H522", "value": 1.14, "unit": "µM"}, {"measurement": "IC50", "setting": "Calu-3", "value": 10, "unit": "µM"}]}
